Test results taken from ChEMBL document CHEMBL1201862, “PubChem BioAssay data set” (2004).
Active and inactive are the calls of the source.

Tests used:
Hexokinase-1 = Hexokinase-1 (Homo sapiens, UniProt P19367); assay: hexokinase 1 activators, dose response, selectivity assay for HKDC1 activator project, biochemical (AID 504762); type: functional
Hexokinase HKDC1 = target: T1, Hexokinase HKDC1 (Homo sapiens, UniProt Q2TB90); assay: HKDC1 hexokinase activators, dose response, biochemical, W721R variant (AID 504730); type: functional
T1 sequence (Q2TB90 whole entry): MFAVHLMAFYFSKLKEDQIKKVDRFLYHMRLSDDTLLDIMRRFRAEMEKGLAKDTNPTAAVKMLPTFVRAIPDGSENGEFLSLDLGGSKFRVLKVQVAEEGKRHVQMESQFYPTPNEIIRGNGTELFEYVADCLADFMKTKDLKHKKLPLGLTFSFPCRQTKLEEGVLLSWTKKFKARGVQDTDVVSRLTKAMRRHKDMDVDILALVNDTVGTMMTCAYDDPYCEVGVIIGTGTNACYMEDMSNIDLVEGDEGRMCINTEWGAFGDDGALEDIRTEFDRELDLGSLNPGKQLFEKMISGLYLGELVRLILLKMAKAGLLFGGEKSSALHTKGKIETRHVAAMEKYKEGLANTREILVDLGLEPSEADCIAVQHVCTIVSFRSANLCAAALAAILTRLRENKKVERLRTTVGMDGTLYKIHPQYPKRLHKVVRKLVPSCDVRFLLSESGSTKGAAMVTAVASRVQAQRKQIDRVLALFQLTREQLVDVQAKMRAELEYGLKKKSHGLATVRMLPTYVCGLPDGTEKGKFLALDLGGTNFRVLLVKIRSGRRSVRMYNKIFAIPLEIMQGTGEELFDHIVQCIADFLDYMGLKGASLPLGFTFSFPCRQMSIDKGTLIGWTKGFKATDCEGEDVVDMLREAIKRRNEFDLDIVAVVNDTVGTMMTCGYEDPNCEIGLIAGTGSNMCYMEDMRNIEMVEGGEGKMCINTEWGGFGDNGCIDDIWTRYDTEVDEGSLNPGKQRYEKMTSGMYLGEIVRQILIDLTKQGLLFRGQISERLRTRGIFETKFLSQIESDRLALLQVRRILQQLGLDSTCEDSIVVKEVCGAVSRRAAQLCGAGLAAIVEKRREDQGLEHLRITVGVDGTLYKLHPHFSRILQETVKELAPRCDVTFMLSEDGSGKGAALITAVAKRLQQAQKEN

[1] = Vero E6 cell cytotoxicity, dose response, cytotoxicity control for non-replicating M. tuberculosis project, secondary assay (AID 492998); type: functional, VeroE6; settings: Vero C1008
[2] = microbe, parasite or virus in culture; type: functional; settings: Mycobacterium tuberculosis
Protein RecA = target: T2, Protein RecA (Mycobacterium tuberculosis, UniProt P9WHJ3); assay: Fluorescence Cell-Free Homogeneous Dose Retest to Identify Inhibitors of RecA-Intein Splicing Activity. [Related pubchem assays (depositor defined):AID2097, AID2223, AID489010, AID492950]; type: functional
T2 sequence (P9WHJ3 whole entry): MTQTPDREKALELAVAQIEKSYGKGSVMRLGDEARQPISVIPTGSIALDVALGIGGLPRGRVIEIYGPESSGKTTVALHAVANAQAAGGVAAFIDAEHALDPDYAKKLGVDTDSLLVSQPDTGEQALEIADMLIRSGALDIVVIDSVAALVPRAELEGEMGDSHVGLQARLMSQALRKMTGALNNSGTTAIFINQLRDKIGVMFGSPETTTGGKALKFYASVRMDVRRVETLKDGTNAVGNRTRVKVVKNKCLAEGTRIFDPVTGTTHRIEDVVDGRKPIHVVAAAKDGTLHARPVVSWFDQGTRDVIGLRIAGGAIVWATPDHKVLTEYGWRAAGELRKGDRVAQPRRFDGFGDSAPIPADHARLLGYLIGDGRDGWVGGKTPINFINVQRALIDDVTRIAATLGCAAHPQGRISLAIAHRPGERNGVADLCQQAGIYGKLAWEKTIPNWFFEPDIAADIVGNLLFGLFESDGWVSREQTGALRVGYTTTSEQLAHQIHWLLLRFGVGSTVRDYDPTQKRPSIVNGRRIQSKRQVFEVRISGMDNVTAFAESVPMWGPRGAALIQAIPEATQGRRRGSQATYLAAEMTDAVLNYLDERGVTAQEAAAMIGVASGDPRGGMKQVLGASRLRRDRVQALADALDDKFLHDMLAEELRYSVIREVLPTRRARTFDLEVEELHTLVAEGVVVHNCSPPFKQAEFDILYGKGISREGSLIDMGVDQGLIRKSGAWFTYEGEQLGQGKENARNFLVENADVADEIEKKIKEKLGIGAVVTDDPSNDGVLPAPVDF

[3] = target: T3, Microphthalmia-associated transcription factor (Homo sapiens, UniProt O75030); assay: TRPM1 promoter luciferase signal decrease, dose response, MITF inhibitor project, cell-based, SK-MEL-5, cherry-picked, set 3 (AID 493073); type: functional
T3 sequence (O75030 whole entry): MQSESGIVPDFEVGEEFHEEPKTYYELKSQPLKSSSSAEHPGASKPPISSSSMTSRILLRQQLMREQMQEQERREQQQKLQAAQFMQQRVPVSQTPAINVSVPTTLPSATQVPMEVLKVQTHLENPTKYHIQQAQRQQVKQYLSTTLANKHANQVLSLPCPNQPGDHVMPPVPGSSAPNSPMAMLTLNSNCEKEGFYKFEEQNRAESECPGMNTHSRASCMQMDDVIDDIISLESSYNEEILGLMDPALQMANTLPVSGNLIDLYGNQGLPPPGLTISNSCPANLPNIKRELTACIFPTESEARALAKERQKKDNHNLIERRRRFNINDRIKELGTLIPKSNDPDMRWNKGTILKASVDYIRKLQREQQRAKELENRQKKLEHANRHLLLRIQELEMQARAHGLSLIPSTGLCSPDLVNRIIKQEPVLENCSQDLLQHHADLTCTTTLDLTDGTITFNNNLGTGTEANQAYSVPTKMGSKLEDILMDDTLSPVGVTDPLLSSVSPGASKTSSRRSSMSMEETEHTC

[4] = target: T4, Replicative DNA helicase DnaB (Mycobacterium tuberculosis, UniProt P9WMR3); assay: DnaB intein splicing inhibitors, dose response, biochemical, cell-free fluorescence (AID 449749); type: functional
T4 sequence (P9WMR3 whole entry): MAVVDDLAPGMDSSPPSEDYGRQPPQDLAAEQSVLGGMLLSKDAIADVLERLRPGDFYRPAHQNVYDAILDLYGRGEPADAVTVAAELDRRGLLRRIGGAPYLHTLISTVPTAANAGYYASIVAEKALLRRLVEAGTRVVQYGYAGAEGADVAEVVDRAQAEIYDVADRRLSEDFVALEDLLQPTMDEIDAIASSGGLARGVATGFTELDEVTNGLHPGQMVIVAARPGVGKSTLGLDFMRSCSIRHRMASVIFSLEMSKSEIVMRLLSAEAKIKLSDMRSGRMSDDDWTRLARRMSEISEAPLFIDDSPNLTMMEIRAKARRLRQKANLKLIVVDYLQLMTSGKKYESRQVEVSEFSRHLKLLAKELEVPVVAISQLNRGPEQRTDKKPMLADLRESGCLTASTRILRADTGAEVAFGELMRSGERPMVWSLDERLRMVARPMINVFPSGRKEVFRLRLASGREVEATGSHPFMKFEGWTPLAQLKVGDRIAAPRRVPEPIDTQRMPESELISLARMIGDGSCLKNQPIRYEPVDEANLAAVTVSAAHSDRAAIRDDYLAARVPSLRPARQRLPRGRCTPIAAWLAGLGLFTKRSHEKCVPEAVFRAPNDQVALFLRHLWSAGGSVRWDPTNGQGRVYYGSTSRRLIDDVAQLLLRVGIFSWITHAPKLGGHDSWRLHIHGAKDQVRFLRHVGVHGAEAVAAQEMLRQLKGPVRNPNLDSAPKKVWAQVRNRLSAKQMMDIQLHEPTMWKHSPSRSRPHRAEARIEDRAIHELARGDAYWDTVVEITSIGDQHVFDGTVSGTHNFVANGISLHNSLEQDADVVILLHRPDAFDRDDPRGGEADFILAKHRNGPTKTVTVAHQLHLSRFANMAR

cells = type: functional
[5] = THP-1 cell cytotoxicity, dose response, cytotoxicity control for non-replicating M. tuberculosis project (AID 489025); type: functional
[6] = target: T5, Heat shock factor protein 1 (Mus musculus, UniProt P38532); assay: HSF1 potentiators in luciferase reporter cells, confirmation, cell-based, NIH3T3, luminescence, dose retest (AID 435004); type: functional;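 note: stress induced by proteasome inhibitor MG132 added 30 min after compound; luciferase reporter driven by HSF1 response element in NIH3T3 cells; actives raise luminescence as potentiators of the MG132 stress response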
T5 sequence (P38532 whole entry): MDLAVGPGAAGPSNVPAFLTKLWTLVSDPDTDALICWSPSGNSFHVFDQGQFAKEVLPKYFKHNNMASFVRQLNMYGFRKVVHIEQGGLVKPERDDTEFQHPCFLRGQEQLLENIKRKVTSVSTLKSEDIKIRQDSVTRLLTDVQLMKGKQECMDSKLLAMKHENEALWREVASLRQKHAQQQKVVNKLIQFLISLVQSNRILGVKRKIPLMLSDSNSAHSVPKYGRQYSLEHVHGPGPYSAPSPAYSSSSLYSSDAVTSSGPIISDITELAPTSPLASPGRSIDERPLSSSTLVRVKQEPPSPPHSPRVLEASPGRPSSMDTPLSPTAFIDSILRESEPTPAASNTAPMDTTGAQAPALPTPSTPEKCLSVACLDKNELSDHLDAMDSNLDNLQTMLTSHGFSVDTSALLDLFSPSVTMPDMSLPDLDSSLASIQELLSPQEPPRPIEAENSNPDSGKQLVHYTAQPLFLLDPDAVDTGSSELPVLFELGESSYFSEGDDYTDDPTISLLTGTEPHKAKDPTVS

T-cell = assay: inhibitors of CD8+ T cell–vesicle binding, dose response, mouse 2C CD8+ T cells, flow cytometry (AID 485284); type: functional
[7] = target: T6, Sphingosine 1-phosphate receptor 4 (Homo sapiens, UniProt O95977); assay: Late-stage fluorescence dose response cell-based assay to identify agonists of the Sphingosine 1-Phosphate Receptor 4 (S1P4): purchased compounds EC50. [Related pubchem assays (depositor defined):AID1509, AID1523, AID1563, AID1686, AID1701, AID1801]; type: functional
T6 sequence (O95977 whole entry): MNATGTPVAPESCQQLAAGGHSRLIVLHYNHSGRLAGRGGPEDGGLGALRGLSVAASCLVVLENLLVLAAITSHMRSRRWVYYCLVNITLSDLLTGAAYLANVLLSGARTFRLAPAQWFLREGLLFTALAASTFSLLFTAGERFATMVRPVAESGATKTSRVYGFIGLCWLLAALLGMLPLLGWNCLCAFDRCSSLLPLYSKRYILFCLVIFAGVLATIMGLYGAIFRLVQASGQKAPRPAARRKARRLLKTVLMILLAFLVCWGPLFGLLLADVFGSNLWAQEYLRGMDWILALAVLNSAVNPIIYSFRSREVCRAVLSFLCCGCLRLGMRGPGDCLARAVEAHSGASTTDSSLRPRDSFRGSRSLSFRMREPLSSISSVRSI

[8] = cytotoxicity in HEK-293T cells, dose response, cytotoxicity control for BCR NF-kB inhibitor project, luminescence, B-cell screen hits (AID 489021); type: functional, cell-based;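 note: HEK-293T cells carrying an NF-kB luciferase reporter; cells exposed to compound for about 14 hours before viability readout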
BJ [9] = assay: cytotoxicity toward BJ-TERT-LT-ST fibroblasts, dose response, cell-based, RAS-independent, luminescence (AID 1935); type: functional; settings: Homo sapiens;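 note: BJ fibroblasts immortalized with TERT plus LT and ST oncogenes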
BJ [10] = assay: cytotoxicity toward BJ-TERT fibroblasts, dose response, cell-based, RAS-independent, luminescence (AID 1933); type: functional; settings: Homo sapiens
BJ [11] = assay: cells; type: functional, cell-based; settings: Homo sapiens
[12] = target: T5, Heat shock factor protein 1; assay: inhibition of MG132-induced HSE-luciferase signal, confirmation, cell-based, NIH3T3, luminescence, dose retest (AID 2382); type: functional;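 note: NIH3T3 fibroblasts with HSF1-driven luciferase reporter stressed by proteasome inhibitor MG132; luminescence from HSF1-driven luciferase expression after 8 hours of MG132 stress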
[13] = non-specific cell cytotoxicity, dose response, cytotoxicity control for PAX8 inhibitor project, plate reader, dry powder samples (AID 743021); type: functional, cell-based
[14] = cytotoxicity toward DRD oncogenic fibroblasts, dose response, cell-based, non-viral oncogenic, luminescence (AID 1934); type: functional; settings: Homo sapiens
BJ [15] = assay: cytotoxicity toward Ras-transformed BJeLR fibroblasts, dose response, cell-based, alamar blue fluorescence, cherrypicked samples (AID 2631); type: functional; settings: Homo sapiens;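 note: confirmatory dose-response assay in RAS-dependent BJ fibroblasts engineered with TERT, LT and ST, with cytotoxicity read by fluorescence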
Paired box protein Pax-8 = Paired box protein Pax-8 (Homo sapiens, UniProt Q06710); assay: inhibitors of PAX8-driven TPO luciferase reporter, dose response, RMG-I cells, cherry-pick (AID 687027); type: functional, cell-based;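 note: luciferase reporter driven by Pax8 target thyroperoxidase promoter measured by SteadyGlo luminescence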
Paired box protein Pax-8, sequence (Q06710 whole entry): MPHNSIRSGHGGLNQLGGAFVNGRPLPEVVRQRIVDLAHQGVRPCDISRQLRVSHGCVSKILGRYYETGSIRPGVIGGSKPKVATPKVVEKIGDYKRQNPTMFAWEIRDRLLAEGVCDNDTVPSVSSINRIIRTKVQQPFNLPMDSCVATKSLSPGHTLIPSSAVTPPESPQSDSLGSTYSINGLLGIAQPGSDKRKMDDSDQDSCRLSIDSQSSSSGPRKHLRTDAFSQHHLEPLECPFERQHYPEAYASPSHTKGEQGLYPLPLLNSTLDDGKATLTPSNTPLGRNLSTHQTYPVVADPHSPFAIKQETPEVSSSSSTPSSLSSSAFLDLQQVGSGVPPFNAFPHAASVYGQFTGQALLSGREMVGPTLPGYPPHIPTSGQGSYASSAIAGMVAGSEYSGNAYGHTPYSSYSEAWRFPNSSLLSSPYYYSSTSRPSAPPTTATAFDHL

[16] = Intein inhibitors as potential Tuberculosis drugs, a cytotoxicity screen. [Related pubchem assays (depositor defined):AID2221, AID2223, AID434968, AID435010, AID449749, AID449750, AID489010]; type: functional
[17] = target: T7, Runt-related transcription factor 1/Core-binding factor subunit beta (Homo sapiens, UniProt Q01196+Q13951); assay: inhibitors of RUNX1 Runt–CBFb-SMMHC binding, biochemical, TR-FRET (AID 1438); type: protein assay
T7 sequence (Q01196 whole entry, the tested form may be a part): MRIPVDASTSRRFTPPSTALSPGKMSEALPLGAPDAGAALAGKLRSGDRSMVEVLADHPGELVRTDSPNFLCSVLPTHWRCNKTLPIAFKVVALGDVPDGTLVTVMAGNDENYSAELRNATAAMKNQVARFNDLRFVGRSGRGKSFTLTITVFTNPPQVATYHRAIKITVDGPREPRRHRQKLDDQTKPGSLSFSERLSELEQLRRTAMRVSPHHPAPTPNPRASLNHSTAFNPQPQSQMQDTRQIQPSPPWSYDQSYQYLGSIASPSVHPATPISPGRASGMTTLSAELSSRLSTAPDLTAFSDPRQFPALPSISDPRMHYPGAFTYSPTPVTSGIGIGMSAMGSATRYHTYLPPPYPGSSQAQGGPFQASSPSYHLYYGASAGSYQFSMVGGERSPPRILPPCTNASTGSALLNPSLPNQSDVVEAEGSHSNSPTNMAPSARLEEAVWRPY
T7 sequence (Q13951 whole entry, the tested form may be a part): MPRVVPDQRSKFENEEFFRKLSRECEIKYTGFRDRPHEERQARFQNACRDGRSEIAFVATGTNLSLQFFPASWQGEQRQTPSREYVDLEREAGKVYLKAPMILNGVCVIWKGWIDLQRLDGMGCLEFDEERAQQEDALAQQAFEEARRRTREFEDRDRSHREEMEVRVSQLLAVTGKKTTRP

[18] = target: T7, Runt-related transcription factor 1/Core-binding factor subunit beta; assay: inhibitors of RUNX1 Runt–CBFb-SMMHC binding, primary screen, biochemical, FRET, Cerulean-Runt, Venus-CBFb-SMMHC, uHTS (AID 1434); type: protein assay;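 note: partner is the CBFb-SMMHC leukemia fusion protein rather than wild-type CBFb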

Hexokinase-1, sequence (P19367 whole entry): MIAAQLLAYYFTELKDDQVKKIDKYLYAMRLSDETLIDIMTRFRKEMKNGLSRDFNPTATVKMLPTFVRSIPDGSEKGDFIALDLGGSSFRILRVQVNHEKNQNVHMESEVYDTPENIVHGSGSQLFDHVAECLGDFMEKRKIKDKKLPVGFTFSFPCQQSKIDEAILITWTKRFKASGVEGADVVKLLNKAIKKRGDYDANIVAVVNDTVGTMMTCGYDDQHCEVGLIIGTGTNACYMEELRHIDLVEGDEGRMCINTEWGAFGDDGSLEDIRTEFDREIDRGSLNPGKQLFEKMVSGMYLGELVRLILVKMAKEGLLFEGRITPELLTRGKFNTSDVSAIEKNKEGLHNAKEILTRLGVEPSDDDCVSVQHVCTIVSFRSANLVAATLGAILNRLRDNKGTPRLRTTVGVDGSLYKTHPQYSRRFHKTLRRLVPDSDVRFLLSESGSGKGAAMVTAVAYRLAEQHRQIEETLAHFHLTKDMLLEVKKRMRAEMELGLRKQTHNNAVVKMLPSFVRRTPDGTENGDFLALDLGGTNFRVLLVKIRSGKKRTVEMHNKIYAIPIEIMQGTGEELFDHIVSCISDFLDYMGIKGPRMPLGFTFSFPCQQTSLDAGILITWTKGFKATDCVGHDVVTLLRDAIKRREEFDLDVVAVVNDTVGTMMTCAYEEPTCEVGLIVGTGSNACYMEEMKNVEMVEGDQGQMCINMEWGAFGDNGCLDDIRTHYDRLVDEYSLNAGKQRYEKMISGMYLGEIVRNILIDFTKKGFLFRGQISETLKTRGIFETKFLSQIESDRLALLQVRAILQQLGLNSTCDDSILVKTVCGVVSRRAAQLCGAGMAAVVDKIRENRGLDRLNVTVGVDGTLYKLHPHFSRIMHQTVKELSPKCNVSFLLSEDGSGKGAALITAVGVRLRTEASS

COc1ccccc1C1=NN=C(Nc2cccc(S(=O)(=O)N(C)C)c2)SC1
EC50 (Hexokinase-1): 20.1 µM (inactive)
EC50 (Hexokinase HKDC1): 19.5 µM (active)

COC(=O)c1ccc2c(c1O)C(=O)c1ccccc1C2=O
CC50 [1]: > 20 µM (active)
CC50 [2]: 24.2 µM (active)
EC50 (Protein RecA): 0.925 µM (active)
AC50 [3]: 1.61 µM (active)
AC50 [4]: 51.4 µM (active)
IC50 (cells): 4.52 µM (active)
CC50 [5]: > 40 µM (active)
EC50 [6]: 3.73 µM (active)

Cc1ccc(S(=O)(=O)N2CCC(NC(=O)c3ccccc3)CC2)cc1
EC50 (T-cell): 7.83 µM (active)

Cc1nn(Cc2ccccc2)c(Cl)c1C(=O)OC(C)C(=O)NCc1ccccc1 (configuration not stated)
EC50 [7]: > 50 µM (inactive)

C=CCOc1ccccc1CN(C(=O)CCl)c1ccc2c(c1)OCO2
IC50 [8]: 62.1 µM (inactive)
EC50 (BJ [9]): 17.3 µM (inconclusive)
EC50 (BJ [10]): 0.7 µM (inconclusive)
EC50 (BJ [11]): 4.58 µM (active)
CC50 [2]: 1.68 µM (active)
EC50 [12]: 4.88 µM (active)
EC50 (Protein RecA): 0.481 µM (active)
AC50 [4]: 2.37 µM (active)
AC50 [13]: 9.67 µM (active)
EC50 [14]: 5.04 µM (active)
EC50 (BJ [15]): > 66.7 µM (inactive)
AC50 (Paired box protein Pax-8): 5.46 µM (active)
CC50 [16]: 2.07 µM (active)

CCOC(=O)N1CCC(NC(=O)c2ccc3c(c2)N(C)CCS3)CC1
IC50 [17]: > 100 µM (inactive)
IC50 [18]: > 100 µM (inactive)
